Values quoted from earlier work, collected in patent US6939558B2, “Intravaginal devices containing progesterone for estrus synchronization and related proceses” (Akzo Nobel N.V., priority 2001, dated 2005).

Tested on: bovines
Details: 1 mg Estradiol Benzoate 24 hours after removal of the device

Compound: C[C@]12CC[C@@H]3c4ccc(OC(=O)c5ccccc5)cc4CC[C@H]3[C@@H]1CC[C@@H]2O [Estradiol Benzoate]
- ovulation after removal of the device: 70 h
